SMILES strings stand for the structures. Values joined by “and” are separate entries in the source; they are usually repeats but may differ in a detail not shown here. Equal entries are not always repeated.

The values below come from patent US11518823B2, “Photoinitiators for light-curable compositions” (priority 2017, dated 2022).

Series [1] is described as follows: photo-DSC monitoring of photopolymerization in hexanediol diacrylate. On the procedure: (§1) In the following examples, of the inventive use of compounds of formula (I) as photo-initiators, reaction mixtures containing the respective photoinitiator, the specified liquid monomer and optionally a specified co-intiator were produced and cured for 10 min under a nitrogen atmosphere by exposure to an OmniCure® S2000 mercury lamp having a wave length filter of 320 to 500 nm and an UV light intensity of 1 W/cm^2, while the progress of the reactions was monitored by photo-DSC type NETSCH DSC 204 F1 Phoenix.
(§2) All measurements were carried out at least twice, the respective tables showing the average values for the respective initiators.
(§3) In the tables, RP represents the polymerization rate and is thus an indicator of the reactivity of a system. A high value means that many monomer groups are reacted at the same time and that the curing process is generally shorter. tmax is the time (in s) it takes until maximum heat development is reached and is thus an indicator of how long it takes to reach the gelling point and thus a certain initial solidity. Short times are thus more desirable. t95% is the time (in s) after which 95% of the entire reaction heat have been released and is thus an indicator of the rate at which a reaction occurs, lower values again being advantageous. DBC is the double bond conversion rate calculated based on the reaction heat released during polymerization (in J per g) of the respective formulation. For the conversion rate, it is desirable to achieve values that are as high as possible.
(§4) In all formulations, the respective photoinitiator was used in an equimolar amount with respect to 1 wt % of ethyl pyruvate (1), which was the initiator having the lowest molecular weight, and weighed in accordingly, and co-initiators, if contained, were weighed in equimolar amounts with respect to the respective initiator. Subsequently, 12±0.5 mg of the reaction mixtures were weighed into DSC aluminum pans, and the pans were covered with cover glasses.

Series [2] is described as follows: photo-DSC monitoring of photopolymerization in divinyl adipate. As to conditions: monomer DVA, co-initiator DMAB. As for the experimental part:
In the following examples, of the inventive use of compounds of formula (I) as photo-initiators, reaction mixtures containing the respective photoinitiator, the specified liquid monomer and optionally a specified co-intiator were produced and cured for 10 min under a nitrogen atmosphere by exposure to an OmniCure® S2000 mercury lamp having a wave length filter of 320 to 500 nm and an UV light intensity of 1 W/cm^2, while the progress of the reactions was monitored by photo-DSC type […]1 Phoenix. All measurements were carried out at least twice, the respective tables showing the average values for the respective initiators. In the tables, RP represents the polymerization rate and is thus an indicator of the reactivity of a system. A high value means that many monomer groups are reacted at the same time and that the curing process is generally shorter. tmax is the time (in s) it takes until maximum heat development is reached and is thus an indicator of how long it takes to reach the gelling point and thus a certain initial solidity. Short times are thus more desirable. t95% is the time (in s) after which 95% of the entire reaction heat have been released and is thus an indicator of the rate at which a reaction occurs, lower values again being advantageous. DBC is the double bond conversion rate calculated based on the reaction heat released during polymerization (in J per g) of the respective formulation. For the conversion rate, it is desirable to achieve values that are as high as possible. In all formulations, the respective photoinitiator was used in an equimolar amount with respect to 1 wt % of ethyl pyruvate (1), which was the initiator having the lowest molecular weight, and weighed in accordingly, and co-initiators, if contained, were weighed in equimolar amounts with respect to the respective initiator. Subsequently, 12±0.5 mg of the reaction mixtures were weighed into DSC aluminum pans, and the pans were covered with cover glasses.

Series [3] is described as follows: photo-DSC monitoring of photopolymerization in dental dimethacrylate mixture. On the procedure: All measurements were carried out at least twice, the respective tables showing the average values for the respective initiators. In the tables, RP represents the polymerization rate and is thus an indicator of the reactivity of a system. A high value means that many monomer groups are reacted at the same time and that the curing process is generally shorter. tmax is the time (in s) it takes until maximum heat development is reached and is thus an indicator of how long it takes to reach the gelling point and thus a certain initial solidity. Short times are thus more desirable. t95% is the time (in s) after which 95% of the entire reaction heat have been released and is thus an indicator of the rate at which a reaction occurs, lower values again being advantageous. DBC is the double bond conversion rate calculated based on the reaction heat released during polymerization (in J per g) of the respective formulation. For the conversion rate, it is desirable to achieve values that are as high as possible. In all formulations, the respective photoinitiator was used in an equimolar amount with respect to 1 wt % of ethyl pyruvate (1), which was the initiator having the lowest molecular weight, and weighed in accordingly, and co-initiators, if contained, were weighed in equimolar amounts with respect to the respective initiator. […] In this group of experiments, the experiments from Examples 1 to 4 and Comparative Example 1 were repeated, using a di-methacrylate mixture from the field of dental engineering as a monomer instead of the diacrylate that had been used above.

Series [4] in a line: photo-DSC of hydrogel formulation with PEG700DA and 50 wt % water. As to conditions: without co-initiator. As for the experimental part:
as §1, §2, §3, §4
(§5) PBQ was used as a commercially available reference initiator, with MDEA as a co-initiator. The ketoesters ethyl pyruvate (1) and dimethylfurandione (8) can be used as novel initiators without any co-initiator. Due to its longwave absorption maximum (λmax=378 nm instead of 330 nm for compound (1)), compound (8) can also be used using visible light which is harmless for cells.

Series [5] in a line: longwave absorption maximum. In kind it is physicochemical.
Source text: as §5

The mark [6] stands for this setting: monomer HDDA, type I initiators, without any co-initiators (Table 5).
The mark [7] stands for this setting: monomer HDDA, type I, without any co-initiators.
[8] abbreviates: acrylate (HDDA), co-initiator (Table 10, C8).
Where [9] appears, read: monomer HDDA, co-initiator DMAB.
[10] abbreviates: monomer HDDA, co-initiator MDEA.
Setting [11] is: monomer HDDA, co-initiator shown only as drawing (Table 11).
[12] abbreviates: monomer HDDA, co-initiator shown only as drawing (Table 13).
[13] abbreviates: monomer HDDA, co-initiator shown only as drawing, reference is benzophenone/amine system (Table 11).
The mark [14] stands for this setting: dental formulation DDM, co-initiator DMAB (Table 12).
[15] abbreviates: methacrylates, co-initiator DMAB (Table 10).
Where [16] appears, read: monomer DDM, co-initiator DMAB (Table 7).
Setting [17] is: monomer HDDA, co-initiator thiol.
Where [18] appears, read: monomer HDDA, no co-initiator listed (Table 3).
Setting [19] is: HDDA, without any co-initiator (Table 10).

In the case of `CC(C)(Br)C(=O)c1ccccc1` [BD, 2-bromo-2-methyl-1-phenylpropan-1-one, reference compound], in series [1] (setting [6]), the “RP (polymerization rate)” value is 146 mmol/L/s. Also, in series [1] (setting [7]), the DBC was 57.6% and the t95% was found to be 62.5 s.
For the compound `O=C(c1ccccc1)c1ccccc1` [BP, Benzophenone, reference compound], the DBC in series [1] (setting [8]) is recorded as 69%; in series [1] (setting [10]) it was 69.3%; in series [1] (setting [11]), 69%; in series [1] (setting [12]) it was 69%; in series [3] (setting [14]), 49%; in series [3] (setting [15]) it was 49%. The DBC in series [3] (setting [16]) is given as 50%. The “RP (polymerization rate)” value in series [1] (setting [8]) was determined as 93 mmol/L/s; in series [1] (setting [9]) it was 96 mmol/L/s; in series [1] (setting [10]) it was 109 mmol/L/s; in series [1] (setting [12]), 93 mmol/L/s; in series [1] (setting [13]), 93 mmol/L/s; in series [3] (setting [14]) it was 21 mmol/L/s. Besides, the “RP (polymerization rate)” value in series [3] (setting [15]) was determined as 21 mmol/L/s; in series [3] (setting [16]) it was 21.4 mmol/L/s. The t95% stood at 69 s in series [1] (setting [8]); 77.0 s in series [1] (setting [10]); 69 s in series [1] (setting [11]); 69 s in series [1] (setting [12]); 143 s in series [3] (setting [14]); 143 s in series [3] (setting [15]). Besides, in series [3] (setting [16]), the t95% is 146.5 s. The “DBC (double bond conversion)” value in series [1] (setting [9]) is 68.9%. Besides, the “t95% (time after which 95% of reaction heat released)” value in series [1] (setting [9]) is recorded as 85.5 s. This compound gave an Area in series [2] of 642 J/g. For the same compound, in series [2], the DSC is 4.37 mW · mg^−1.
For the compound `CCC(=O)C(=O)OC` [Compound 2, 2-oxobutanoic Acid Methyl Ester], in series [1] (setting [9]), the “DBC (double bond conversion)” value was found to be 60.9%, the “RP (polymerization rate)” value worked out at 204 mmol/L/s and the “t95% (time after which 95% of reaction heat released)” value was 40.5 s. Besides, in series [3] (setting [16]), the DBC is recorded as 57%, the “RP (polymerization rate)” value turned out to be 71.2 mmol/L/s and the t95% amounted to 85.5 s.
Regarding `CCOC(=O)C(=O)C(C)C` [Compound 3, 2-oxo-3-Methylbutanoic Acid Ethyl Ester], in series [1] (setting [9]), the “DBC (double bond conversion)” value is listed as 65.8%. Also, the “t95% (time after which 95% of reaction heat released)” value in series [1] (setting [9]) was determined as 36.6 s. Moreover, the “RP (polymerization rate)” value was 241 mmol/L/s and 241.0 mmol/L/s in series [1] (monomer HDDA, co-initiator DMAB, listed as E3); 228 mmol/L/s in series [1] (setting [10]); 233.5 mmol/L/s in series [1] (monomer HDDA, co-initiator pentaerythritol-tetrakis(3-mercaptopropionate) (thiol)); 81.5 mmol/L/s in series [3] (setting [16]). Further, the DBC in series [1] (setting [10]) is on record as 65.2%; in series [1] (setting [17]), 68.0%; in series [3] (setting [16]), 57%. Further, the t95% in series [1] (setting [10]) amounted to 56.5 s; in series [1] (setting [17]), 45.0 s; in series [3] (setting [16]), 58.5 s.
For `COC(=O)C(=O)C(C)(C)C` [Compound 4, 2-oxo-3,3-dimethylbutanoic Acid Methyl Ester], in series [1] (setting [9]), the “DBC (double bond conversion)” value is listed as 59.1%, the “RP (polymerization rate)” value stood at 170 mmol/L/s and the “t95% (time after which 95% of reaction heat released)” value amounted to 42.5 s. Further, in series [1] (setting [10]), the DBC is given as 64.6%, the “RP (polymerization rate)” value is 234 mmol/L/s and the t95% is reported as 41.0 s. Besides, in series [1] (setting [18]), the DBC is 64.6%, the “RP (polymerization rate)” value worked out at 214 mmol/L/s and the t95% worked out at 53.5 s. Moreover, in series [3] (setting [16]), the DBC stood at 51%, the “RP (polymerization rate)” value was 55.9 mmol/L/s and the t95% is on record as 69.5 s.
As to `CCOC(=O)C(=O)C(C)(C)Br` [Compound 5, 3-bromo-3-methyl-2-oxobutanoic Acid Ethyl Ester], in series [1] (setting [6]), the “RP (polymerization rate)” value was determined as 239 mmol/L/s. In series [1] (setting [7]), this compound gave a DBC of 62.1% and a t95% of 40.0 s.
Take `CC1(C)COC(=O)C1=O` [Compound 8, 4,4-dimethyldihydrofuran-2,3-dione]: in series [4], the DBC is reported as 56%, the “RP (polymerization rate)” value is 26 mmol/L/s and the t95% worked out at 78 s. In series [1] (setting [19]), the DBC is 66%, the “RP (polymerization rate)” value was 189 mmol/L/s and the t95% is 58 s. In addition, the “longwave absorption maximum λmax” value in series [5] is 378 nm. Further, in series [3] (setting [15]), the DBC came out at 54%, the “RP (polymerization rate)” value worked out at 52 mmol/L/s and the t95% was found to be 90 s.
`CCOC(=O)CCC(=O)C(=O)OCC` [Compound 9, α-Ketoglutaric Acid Diethyl Ester]: the figures for the DBC in series [1] (setting [11]) and in series [3] (setting [14]) were 67% and 53%, respectively. Further, the results for the t95% in series [1] (setting [11]) and in series [3] (setting [14]) were 58 s and 85 s, respectively. For the same compound, the “RP (polymerization rate)” value was determined as 201 mmol/L/s in series [1] (setting [13]) and 66 mmol/L/s in series [3] (setting [14]).
In series [1] (setting [11]), `C=C(C)C(=O)OCCOC(=O)CCC(=O)C(=O)OCCOC(=O)C(=C)C` [Compound 11, α-Ketoglutaric Acid di(hydroxyethylmethacrylate) Ester] registered a DBC of 64% and a t95% of 53 s. Moreover, in series [1] (setting [13]), the “RP (polymerization rate)” value came out at 203 mmol/L/s. Further, in series [3] (setting [14]), the DBC stood at 52%, the “RP (polymerization rate)” value was determined as 57 mmol/L/s and the t95% is 93 s.
For `CCOC(=O)C(=O)C(C)(C)O` [Compound E5], in series [1] (setting [9]), the “DBC (double bond conversion)” value worked out at 63.1%, the “RP (polymerization rate)” value is 218 mmol/L/s and the “t95% (time after which 95% of reaction heat released)” value was 73.0 s.
For the compound `CCOC(=O)C(=O)c1ccccc1` [PGO, Ethyl Phenylglyoxylate, reference compound], in series [1] (setting [18]), the DBC came out at 75.1%, the “RP (polymerization rate)” value came out at 204 mmol/L/s and the t95% is 63.0 s.
